Source: patent publication US20240390400A1, “ENPP1 INHIBITORS AS INHIBITORS OF METASTASIS” (Angarus Therapeutics, Inc., priority 2021, published 2024)
“And” between values parts separate entries of the source, which are not always exact repeats. Equal entries are not always repeated.

What was measured:
[1] = test system: EMT6 tumor cells; assay: EMT-6 tumor model (tumor volume and lung metastasis); type: in vivo, female Balb/c mice
Description: Test animals were female Balb/c mice aged 5-8 weeks at inoculation.
The EMT6 tumor cells were maintained in vitro with DMEM medium supplemented with 10% fetal bovine serum at 37° C. in an atmosphere of 5% CO2 in air. The cells in exponential growth phase were harvested and quantitated by cell counter before tumor inoculation.
Each mouse was inoculated subcutaneously in the right flank region with EMT6 tumor cells (5×10^5) in 0.1 ml of PBS for tumor development.
Staggered inoculation was performed. G1, 2, 3, 6, 7 were inoculated one day before G4, 5, 8, 9, 10.
The randomization started when the mean tumor size reached approximately 80 (60-110) mm^3. 100 mice were enrolled in the study. All animals were randomly allocated to 10 study groups. Randomization was performed based on “Matched distribution” method (StudyDirector™ software, version 3.1.399.19).
Staggered randomization was performed. G1, 2, 3, 6, 7 were randomized one day before G4, 5, 8, 9, 10.
The date of tumor randomization was denoted as day 0.
After tumor cells inoculation, the animals were checked daily for morbidity and mortality. During routine monitoring, the animals were checked for any effects of tumor growth and treatments on behavior such as mobility, food and water consumption, body weight gain/loss (body weights were measured twice per week after randomization), eye/hair matting and any other abnormalities. Mortality and observed clinical signs were recorded for individual animals in detail.
Tumor volumes were measured twice per week in two dimensions using a caliper, and the volume was expressed in mm^3 using the formula: “V=(L×W×W)/2, where V is tumor volume, L is tumor length (the longest tumor dimension) and W is tumor width (the longest tumor dimension perpendicular to L). (Tumor weight was measured at the end of study). Dosing as well as tumor and body weight measurements were conducted in a Laminar Flow Cabinet.
The study was terminated at 4 weeks post randomization. Individual animals were euthanized when TV>3000 mm^3.
For comparison between two groups, a Student's t-test was performed. For comparison among three or more groups, an one-way ANOVA was performed followed by multiple comparison procedures. All data were analyzed using SPSS 18.0 and/or GraphPad Prism 5.0. P<0.05 is considered statistically significant.
Animals were treated with vehicle, cpd 76, radiotherapy, or anti-PD-L1, or a combination of treatments. Compound 76 was dosed 50 mg/kg and formulated 5 mg/ml in PBS. Radiotherapy used the X-RAD 225Cx SmART Small Animal Radiation Therapy System (Crownbio). Ten animals were in each group and dosing was performed as in Table 4.

[2] = Animal weight in 4T1 tumor model study; type: in vivo, Mus musculus, BALB/c; conditions: throughout the study; Groups 3 and 4 until Day 21, Groups 1 and 2 until Day 25
Description: All treatment groups were compared to the vehicle control given subcutaneously once a day on Days 7, 8, 9, 14, 15 and 16 (Group 1).
At necropsies, animals were weighed, and a final in vivo tumor volume measurement was performed.

Structure (SMILES)	effect on tumor growth ([1]; Compound 76 50 mg/kg QD 1-7 combined with IR and aPD-L1 (triple combo))	lung metastasis (animals with metastasis / animals) ([1]; Compound 76 QD 1-7 d combined with aPD-L1 (Groups 9 and 10), study termination day 29)	effect on tumor volume / tumor growth ([1]; single agent, Compound 76 50 mg/kg QD 1-7 only or 3 d on/4 d off for 4 weeks, aPD-L1 2.5 mg/kg)	lung metastasis (animals with metastasis / animals in group) ([1]; single agent, study termination day 29)	mean animal weights [2]
COc1cccc2c(N3CCC(CCP(=O)(O)O)CC3)ncnc12 [Compound 76]	synergistic effect	0/20	no effect on tumor volume	7/10 and 8/10	–
COc1cccc2c1C(=O)c1c(O)c3c(c(O)c1C2=O)C[C@@](O)(C(=O)CO)C[C@@H]3O[C@H]1C[C@H](N)[C@H](O)[C@H](C)O1 [doxorubicin, Doxorubicin]	–	–	–	–	continuously decreased
